Data on ten molecules can be found in PubChem BioAssay (NCI).

What all share (assay): NCI anticancer screen, dose series, 48 h
In assay [1] the test system is OVCAR-5 ovarian.
Assay [2] deals with SR leukemia.
The test system of assay [3] is TK-10 renal.
Assay [4] deals with HCT-116 colon.
Assay [5] has as its system SF-295 CNS.
The subject of assay [6] is SNB-19 CNS.
For assay [7], the system named is LOX IMVI melanoma.
Assay [8] deals with OVCAR-8 ovarian.
Assay [9] concerns M14 melanoma.
The subject of assay [10] is HT29 colon.

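Growth conditions: 96-well plates. Treatment: test compound, 48 hours, 5 concentrations. Analysis: linear interpolation between bracketing concentrations; unreached endpoints set to highest concentration. GI50 is the concentration that inhibits growth by half. The concentration for full growth arrest is given as TGI.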

Regarding `Cc1nnc(N/N=C(/C(=O)C(C#N)c2ccccc2)C(C#N)c2ccccc2)n1N` (centres undefined), the TGI in [1] was greater than 57 µM; in assay [2], greater than 100 µM; in assay [3], greater than 100 µM; in assay [4] it was greater than 55.7 µM; in [5], 13.7 µM; in [6], greater than 100 µM. The TGI was 5.65 µM in [7], 15.2 µM in assay [8], 31.2 µM in assay [9] and greater than 65.7 µM in assay [10].
For `c1ccc2nc3c(cc4ccccn43)nc2c1`, the GI50 is greater than 100 µM in assay [1]; 52.5 µM in assay [2]; 8.36 µM in assay [3]; 23.5 µM in [4]; 49.8 µM in assay [5]; greater than 100 µM in assay [6]. In addition, the GI50 was 47.1 µM in [7], 34.8 µM in assay [8], greater than 100 µM in [9] and greater than 100 µM in [10]. For the same molecule, the TGI in assay [1] was greater than 100 µM; in assay [2], greater than 100 µM; in assay [3] it was 55.1 µM; in assay [4], greater than 100 µM; in assay [5] it was greater than 100 µM; in [6], greater than 100 µM. The TGI in [7], in assay [8], in assay [9] and in assay [10] was greater than 100 µM throughout.
As to `CCCCCCCCCCCCCCCCCCNC(=O)[C@H]1CSC(c2cccs2)N1` (some centres undefined), the GI50 was 1.17 µM in [1]; 0.94 µM in assay [2]; 1.79 µM in [3]; 0.945 µM in assay [4]; 5.58 µM in assay [5]; 3.6 µM in assay [6]. The GI50 in assay [7] was 0.834 µM; in [8], 1.31 µM; in [9], 0.868 µM; in [10], 1.46 µM. Further, the TGI was 2.57 µM in [1]; 2.62 µM in assay [2]; greater than 50 µM in assay [3]; 1.8 µM in [4]; greater than 50 µM in assay [5]; greater than 50 µM in assay [6]. Also, the TGI in assay [7] came out at 2.02 µM; in [8], 3.34 µM; in [9], 1.66 µM; in [10] it was 4.2 µM.
For `NC(=O)C1(N2CCCCC2)CCN(CCCC(=O)c2ccc(F)cc2)CC1`, the GI50 was 6.96 µM in [1]; 0.0761 µM in assay [2]; greater than 26 µM in [3]; 0.777 µM in [4]; 2.7 µM in [5]; 2.86 µM in assay [6]. For the same molecule, the GI50 in assay [7] was 0.254 µM; in [8], 4.91 µM; in [9] it was 2.28 µM; in assay [10], 0.818 µM. Besides, the TGI in [1], in [3], in [4], in assay [5], in assay [6] and in [7] was greater than 100 µM throughout. Moreover, the TGI was greater than 100 µM in [8], 7.72 µM in [9] and greater than 20 µM in [10].
As for `CNC(SC)=C1C(=O)OC(C)(C)OC1=O`, the TGI in assay [1], in assay [2], in assay [3], in [4], in assay [5] and in assay [6] was greater than 100 µM each time. Further, the TGI in [7], in assay [8], in assay [9] and in assay [10] was greater than 100 µM throughout.
On to `CCOC(=O)/C(=C/c1cccc(OC)c1)N(CC)CC`, for which the TGI in [1], in assay [2], in [3], in [4], in [5] and in assay [6] was greater than 100 µM each time. Besides, the TGI in [7], in assay [8], in assay [9] and in [10] was greater than 100 µM each time.
For `Cc1ccc2c(c1)Sc1ccc(N=NN(C)C)cc1N2C`, the TGI in [1], in assay [2], in assay [3], in [4], in assay [5] and in assay [6] was greater than 100 µM each time. The TGI in [7], in [8], in assay [9] and in assay [10] was greater than 100 µM in each case.
As for `CC(=O)NNc1nc(C)c(C(=O)NNC(=O)C(=O)Nc2nc3ccc([N+](=O)[O-])cc3s2)s1`, the TGI in assay [1] is greater than 100 µM; in assay [2], greater than 72.2 µM; in assay [3] it was greater than 100 µM; in assay [4], greater than 100 µM; in assay [5], greater than 100 µM; in [6] it was greater than 100 µM. The TGI in assay [7], in assay [8], in [9] and in [10] was greater than 100 µM in each case.
In the case of `CCSc1nc(N)c2cn[nH]c2n1`, the GI50 in assay [1] was 21.8 µM; in assay [2] it was 7.63 µM; in assay [3], 7.54 µM; in assay [4] it was 30.5 µM; in [5], 32.1 µM; in assay [6], 39.2 µM. Further, the GI50 in [7] is 30.9 µM; in assay [8] it was 48.7 µM; in assay [9], 33.8 µM; in assay [10], 29.4 µM. Besides, the TGI in assay [1] is 63.1 µM; in [2], 39.6 µM; in [3], 34.3 µM; in assay [4], greater than 100 µM; in assay [5], 85.3 µM; in assay [6], greater than 100 µM. For the same molecule, the TGI in assay [7] was greater than 100 µM; in assay [8], greater than 100 µM; in assay [9], greater than 100 µM; in assay [10], 81.9 µM.
Regarding `O=C1C(SCCO)=C(SCCO)C(=O)c2ccccc21`, the TGI in [1] was found to be 2.81 µM; in assay [2], 3.74 µM; in assay [3], 3.39 µM; in assay [4], 9.54 µM; in assay [5], 2.97 µM; in assay [6] it was 3.23 µM. Further, the TGI in assay [7] was 0.812 µM; in [8], 1.22 µM; in [9] it was 2.5 µM; in assay [10], 3.98 µM.
